Like-named read-outs stand apart in the source and are kept apart here.
Key:
HSV-1 = HSV-1 Antiviral Assay (Vero cells, cell viability); format: cell-based; settings: read-out: HSV-1 EC50
Description: Vero cells were cultured in Dulbecco's Modified Eagle Medium (DMVEM) supplemented with […] and 100 units/mL penicillin and streptomycin. The cells were passaged 2-3 times per week to maintain sub-confluent densities.
Vero cells were seeded into 96-well plates at a density of 2.5×10^3 cells per well and allowed to attach overnight. Following attachment, the media was replaced with 50 μL of infection medium (DMVEM supplemented with 2% fetal bovine serum and 100 units/mL penicillin and streptomycin). A Tecan D300e digital dispenser was then used to add compounds to the culture using an 8-point 3-fold serial dilution format. The DMSO concentration was normalized to 0.5% for all treatments. Following compound addition, 50 μL of infection medium containing 80 TCID50 HSV-1 was added to the cells and incubated at 37° C. for 4 days. After the incubation, the plates were equilibrated to room temperature, the media was removed, and […] a 1:1 dilution of Cell titer glow and phosphate buffered saline was added to the cells. Following a 5-minute incubation, cell viability was quantified by measuring luminance using a Tecan Infinite M1000 Pro plate reader.

HSV-2 G strain = test: HSV-2 Antiviral Assay (Vero cells, cell viability); format: cell-based; settings: Human alphaherpesvirus 2, Vero, 120 h, Vero cells, 5 days
Procedure, shortened: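 Vero cells (1.0×10^4/well, attached overnight) given 8-point 3-fold compound dilutions (0.5% DMSO) then infected with 160 TCID50 HSV-2 G strain in 2% FBS medium for 5 days at 37 °C. Protection read as cell viability by WST-8 absorbance at 460 and 620 nm after 3 h.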

[1] = Human alphaherpesvirus 1, 96 h, Vero cells, 80 TCID50 HSV-1, 4 days, cell viability
[2] = 160 TCID50 HSV-2 G strain, cell viability

EC50 (HSV-1; [1]) [nM] | SMILES | other results
100 to 1000 | Cc1nc(N2CCCN(c3ccc(-c4ncco4)cc3)C2=O)sc1S(N)(=O)=O [Compound 41] | EC50 (HSV-2 G strain; [2]): 100 to 1000 nM
< 100 | COc1ccc(F)c(-c2ccc(N3CCCN(c4nc(C)c(S(N)(=O)=O)s4)C3=O)cc2)c1 [Compound 26] | EC50 (HSV-2 G strain; [2]): < 100 nM
1000 to 5000 | Cc1nc(N2CCCN(c3ccc(-c4ccc(C#CC(C)(C)O)cc4)cc3)C2=O)sc1S(N)(=O)=O [Compound 28] | EC50 (HSV-2 G strain; [2]): 1000 to 5000 nM
< 100 | C#Cc1ccc(F)cc1-c1ccc(N2CCCN(c3nc(C)c(S(N)(=O)=O)s3)C2=O)cc1 [Compound 18] | EC50 (HSV-2 G strain; [2]): < 100 nM
< 100 | Cc1nc(N2CCCN(c3ccc(-c4nccs4)cc3)C2=O)sc1S(=O)(=O)NC1CC1 [Compound 127] | EC50 (HSV-2 G strain; [2]): < 100 nM
< 100 | Cc1nc(N2CC3(COC3)CN(c3ccc(-c4cc(F)cc(-c5cnn(C(F)F)c5)c4F)cc3)C2=O)sc1S(N)(=O)=O [Compound 342] | EC50 (HSV-2 G strain; [2]): < 100 nM
1000 to 5000 | Cc1nc(N2CCCN(c3ccc(-c4ccnn4C)cc3)C2=O)sc1S(N)(=O)=O [Compound 40] | EC50 (HSV-2 G strain; [2]): 1000 to 5000 nM
 | Cc1nc(N2CCN(c3ccc(-c4cc(F)ccc4F)cc3)C2=O)sc1S(N)(=O)=O [Example 104] | EC50 (HSV-1; Human alphaherpesvirus 1, 96 h, Vero cells, 4 days): 1740 nM; EC50 (HSV-2 G strain): > 2000 nM
< 100 | Cc1nc(N2CCCN(c3ccc(-c4cc(F)cc(-c5cncs5)c4F)cc3)C2=O)sc1S(N)(=O)=O [Compound 211] | EC50 (HSV-2 G strain; [2]): < 100 nM
< 100 | Cc1nc(N2CCCN(c3ccc(-c4cc(F)ccc4C4CC4)cc3)C2=O)sc1S(N)(=O)=O [Compound 22] | EC50 (HSV-2 G strain; [2]): < 100 nM
100 to 1000 | Cc1nc(N2CCCN(c3ccc(-c4cc(F)ccc4F)cc3)C2=O)sc1S(=O)(=O)C1CC1 [Compound 163] | EC50 (HSV-2 G strain; [2]): 100 to 1000 nM
< 100 | Cc1nc(N2CCCN(c3ccc(-c4cc(Cl)cc5ncsc45)cc3)C2=O)sc1S(N)(=O)=O [Compound 277] | EC50 (HSV-2 G strain; [2]): < 100 nM
< 100 | Cc1nc(N2CCCN(c3ccc(-c4cc(F)ccc4F)cc3)C2=O)sc1S(C)(=O)=O [Compound 161] | EC50 (HSV-2 G strain; [2]): < 100 nM
1000 to 5000 | Cc1nc(N2CCCN(C(C)c3cccc(-c4cc(F)ccc4F)c3)C2=O)sc1S(N)(=O)=O (stereo not drawn) [Compound 174, 2-(3-(1-(2′,5′-Difluoro-[1,1′-biphenyl]-3-yl)ethyl)-2-oxotetrahydropyrimidin-1(2H)-yl)-4-methylthiazole-5-sulfonamide] | EC50 (HSV-2 G strain; [2]): 1000 to 5000 nM
< 100 | Cc1nc(N2CC(C)CN(c3ccc(-c4cc(F)ccc4F)cc3)C2=O)sc1S(N)(=O)=O (stereo not drawn) [Compound 318] | EC50 (HSV-2 G strain; [2]): < 100 nM
100 to 1000 | Cc1nc(N2CCCN(c3ccc(-c4ccccc4F)c(F)c3)C2=O)sc1S(N)(=O)=O [Compound 95] | EC50 (HSV-2 G strain; [2]): 100 to 1000 nM
1000 to 5000 | Cc1nc(N2CCN(c3ccc(-c4cc(F)ccc4F)cc3)C2=O)sc1S(N)(=O)=O [Compound 104] | 
1000 to 5000 | Cc1nc(N2CCCN(c3ccc(-c4nnco4)cc3)C2=O)sc1S(N)(=O)=O [Compound 51, 2-(3-(4-(1,3,4-oxadiazol-2-yl)phenyl)-2-oxotetrahydropyrimidin-1(2H)-yl)-4-methylthiazole-5-sulfonamide] | 
< 100 | Cc1nc(N2CCCN(c3ccc(-c4cccc5cnn(C)c45)cc3)C2=O)sc1S(N)(=O)=O [Compound 63] | 

EC50 (HSV-1; [1]) [nM] | SMILES | other results
100 to 1000 | Cc1nc(N2CCCN(c3ccc(-c4cnccn4)cc3)C2=O)sc1S(N)(=O)=O [Compound 39] | 
100 to 1000 | Cc1nc(N2CCCN(c3ccc(-c4cccc(NC(=O)OC(C)(C)C)n4)cc3)C2=O)sc1S(N)(=O)=O [Compound 34] | 
100 to 1000 | Cc1nc(N2CCCN(c3ccc(-c4cc(F)ccc4F)cc3)C2=O)sc1S(C)(=N)=O (stereo not drawn) [Compound 139, 1-(2′,5′-Difluoro-[1,1′-biphenyl]-4-yl)-3-(4-methyl-5-(S-methylsulfonimidoyl)thiazol-2-yl) tetrahydropyrimidin-2(1H)-one] | 
100 to 1000 | Cc1nc(N2CC3(CC3)CN(c3ccc(-c4ccccc4F)cc3)C2=O)sc1[S@](C)(=N)=O (single isomer, unassigned) [Compound 159] | 
100 to 1000 | Cc1nc(N2CCCN(Cc3cccc(-c4ccccc4)c3)C2=O)sc1S(=O)(=O)NC1CC1 [Compound 183] | 
100 to 1000 | Cc1nc(N2CCCN(Cc3cccc(-c4cc(F)ccc4F)c3)C2=O)sc1S(=O)(=O)NC1CC1 [Compound 180] | 
< 100 | Cc1nc(N2CCCN(c3ccc(-c4cccc5scnc45)cc3)C2=O)sc1S(N)(=O)=O [Compound 71, 2-(3-(4-(Benzo[d]thiazol-4-yl)phenyl)-2-oxotetrahydropyrimidin-1(2H)-yl)-4-methylthiazole-5-sulfonamide] | 
100 to 1000 | Cc1nc(N2CC3(CC3)CN(c3ccc(-c4ccccc4F)cc3)C2=O)sc1S(C)(=N)=O (stereo not drawn) [Compound 158] | 
< 100 | Cc1nc(N2CCCN(c3ccc(-n4ncc5ccccc54)cc3)C2=O)sc1S(N)(=O)=O [Compound 93] | 
< 100 | Cc1nc(N2CC(C)(C)CN(c3ccc(-c4cc(F)ccc4F)cc3)C2=O)sc1S(N)(=O)=O [Compound 106] | 
100 to 1000 | Cc1nc(N2CCCN(c3ccc(-c4cccc(N)n4)cc3)C2=O)sc1S(N)(=O)=O [Compound 33] | 
 | Cc1nc(N2CCCN(c3ccc(-c4cc(F)ccc4F)cc3)C2=O)sc1S(=O)(=O)F [Compound 165] | EC50 (HSV-1; Human alphaherpesvirus 1, Vero, 96 h): 1000 to 5000 nM
100 to 1000 | Cc1nc(N2CCCN(c3ccc(-c4cc(F)ccc4F)cc3)C2=O)sc1S(=O)(=O)N1CCNCC1 [Compound 135] | 
100 to 1000 | Cc1nc(N2CCCN(c3ccc(-c4cccc(C(F)(F)F)c4)cc3)C2=O)sc1S(N)(=O)=O [Compound 15] | 
100 to 1000 | Cc1nc(N2CCCN(c3ccc(-c4cc(F)ccc4F)cc3)C2=O)sc1S(=O)(=O)Nc1ccccc1 [Compound 134] | 
< 100 | CCS(=N)(=O)c1sc(N2CCCN(c3ccc(-c4cc(F)ccc4F)cc3)C2=O)nc1C (stereo not drawn) [Compound 148] | 
1000 to 5000 | CC(=O)NS(=O)(=O)c1sc(N2CCCN(c3ccc(-c4cc(F)ccc4F)cc3)C2=O)nc1C [Compound 137] | 
100 to 1000 | Cc1nc(N2CCCN(c3ccc(-c4cccc5c4ncn5C)cc3)C2=O)sc1S(N)(=O)=O [Compound 61] | 
100 to 1000 | CS(=O)(=O)c1cnc(N2CCCN(c3ccc(-c4cc(F)ccc4F)cc3)C2=O)s1 [Compound 167] | 

EC50 (HSV-1; [1]) [nM] | SMILES | other results
1000 to 5000 | C#Cc1cc(F)c(-c2ccc(N3CCCN(c4nc(C)c(S(N)(=O)=O)s4)C3=O)cc2)cc1F [Compound 29] | 
1000 to 5000 | Cc1nc(N2CCCN(c3cnn(-c4ccccc4F)c3)C2=O)sc1S(N)(=O)=O [Compound 100] | 
100 to 1000 | Cc1nc(N2CCCN(c3ccc(-c4cc(F)ccc4F)cc3)C2=O)sc1S(=O)(=O)C(C)C [Compound 162, 1-(2′,5′-Difluoro-[1,1′-biphenyl]-4-yl)-3-(5-(isopropylsulfonyl)-4-methylthiazol-2-yl) tetrahydropyrimidin-2(1H)-one] | 
1000 to 5000 | Cc1nc(N2CCCN([C@@H](C)c3cccc(-c4ccccc4F)c3)C2=O)sc1S(N)(=O)=O (single isomer, unassigned) [Compound 179] | 
< 100 | Cc1nc(N2CCCN(c3ccc(-c4cccc5ccncc45)cc3)C2=O)sc1S(N)(=O)=O [Compound 83] | 
100 to 1000 | CNS(=O)(=O)c1sc(N2CCCN(c3ccc(-c4cccc(NC(=O)OC(C)(C)C)n4)cc3)C2=O)nc1C [Compound 125] | 
1000 to 5000 | Cc1nc(N2CCCN(c3ccc(-c4nc5ccccc5o4)cc3)C2=O)sc1S(N)(=O)=O [Compound 87] | 
100 to 1000 | Cc1nc(N2CCCN(c3ccc(-c4ccccn4)c(F)c3)C2=O)sc1S(=O)(=O)NC1CC1 [Compound 129] | 
1000 to 5000 | Cc1nc(N2CCCN(c3ccc(-c4cccc5c4CC(=O)N5)cc3)C2=O)sc1S(N)(=O)=O [Compound 76] | 
< 100 | CC[S@](=N)(=O)c1sc(N2CCCN(c3ccc(-c4cc(F)ccc4F)cc3)C2=O)nc1C (single isomer, unassigned) [Compound 150] | 
100 to 1000 | Cc1nc(N2CCCN(c3ccc(-c4n[nH]c5ccccc45)cc3)C2=O)sc1S(N)(=O)=O [Compound 91] | 
< 100 | Cc1nc(N2CCCN(c3ccc(-c4cccc5c4ccn5C)cc3)C2=O)sc1S(N)(=O)=O [Compound 66] | 
100 to 1000 | Cc1nc(N2CCCN(c3ccc(-c4nc(C(F)(F)F)cs4)cc3)C2=O)sc1S(N)(=O)=O [Compound 46] | 
< 100 | NS(=O)(=O)c1sc(N2CCCN(c3ccc(-c4ccccc4F)cc3)C2=O)nc1C(F)(F)F [Compound 170] | 
100 to 1000 | Cc1nc(N2CCCN(c3ccc(-c4cccc5cccnc45)cc3)C2=O)sc1S(N)(=O)=O [Compound 82] | 
100 to 1000 | Cc1nc(N2CC3(CC3)CN(c3ccc(-c4ccccc4F)cc3)C2=O)sc1[S@@](C)(=N)=O (single isomer, unassigned) [Compound 160] | 
100 to 1000 | Cc1nc(N2CCCN(c3ccc(-c4ccccc4F)cc3)C2=O)sc1[S+](C)[O-] (stereo not drawn) [Compound 168] | 
100 to 1000 | CC[S@@](=N)(=O)c1sc(N2CCCN(c3ccc(-c4cc(F)ccc4F)cc3)C2=O)nc1C (single isomer, unassigned) [Compound 149] | 

— patent US20260103471A1, “CYCLIC UREA THIAZOLYL COMPOUNDS FOR TREATMENT OF HSV” (Assembly Biosciences, Inc., priority 2022, published 2026)
